Read-outs that look alike come from different tables or passages of the source.
Tests used:
[1] = test system: reserpine-induced hypothermia; assay: Antidepressive action: reserpine antagonism, inhibition of reserpine-induced hypothermia of the mouse; assay type: in vivo, male Swiss mice; settings: Table 1; for ED50: Mus musculus, oral administration 60 min before reserpine, dose based on the base, read-out: ED 50% (dose which inhibits the reserpine-induced hypothermia of the mouse by 50%); for R.A. (relative activity), reserpine antagonism: amezinium = 1.00, oral
Description: Antidepressants effect dose-dependent inhibition of this hypotherma. The test substances are administered orally 60 minutes before the administration of reserpine.
The dose which effects 50% inhibition of the reserpine-induced hypothermia is determined, as the ED 50%, from the linear regression between log dose (mg/kg) and relative reduction in hypothermia (Δ%).

[2] = test system: reserpine-induced hypothermia / blood pressure; assay: Quotient ED 50% antidepressive action / ED 20% hypertensive action; assay type: in vivo, mouse / rat
Excerpt: This is evident from the fact that the quotient defined above differs wtih respect to the comparative compounds. […] This arises, inter alia, from the fact that the hypertensive ED 20 constitutes the denominator of the quotient. It is possible that the unforeseeable selective direction of action is attributable to the special substitution,in accordance with the invention, at the 4-imino group.

blood pressure = assay: Effect on the blood pressure: hypertensive action, pithed rat; assay type: in vivo, male Sprague-Dawley rats; settings: Table 1; for ED20: Rattus norvegicus, dose based on the base, read-out: ED 20% hypertensive action (dose which increases the blood pressure of the pithed rat by 20%); for R.A. (relative activity), hypertensive action: amezinium = 1.00
Description: The measurement of the blood pressure in the carotid artery was carried out by means of Statham transducers. The substance was administered in the jugular vein (as an aqueous solution, 1 ml/kg) or intraperitoneally (as a tragacanth suspension, 2 ml/kg). The ED 20% is determined as the dose which increases the blood pressure by 20%.

COc1cc(=NC(=O)c2ccc(Cl)c(Cl)c2)cnn1-c1ccccc1 [Example 80]
ED50 [1]: 1.5 mg/kg | R.A. (relative activity), reserpine antagonism [1]: 0.49 | Q (quotient ED 50% antidepressive action/ED 20% hypertensive action) ([2]; hypertensive test i.p.): < 0.15 | ED20 (blood pressure; ip, i.p. administration): > 10 mg/kg | R.A. (relative activity), hypertensive action (blood pressure; i.p. administration): < 0.04

CCNC(=O)N=c1ccn(-c2ccccc2)nc1 [Example 84, 1,4-dihydro-4-(ethylcarbamyl)-imino-1-phenylpyridazine]
ED50 [1]: 0.37 mg/kg | R.A. (relative activity), reserpine antagonism [1]: 1.98 | Q (quotient ED 50% antidepressive action/ED 20% hypertensive action) ([2]; hypertensive test i.v.): 0.80 | ED20 (blood pressure; iv, i.v. administration): 0.464 mg/kg | R.A. (relative activity), hypertensive action (blood pressure; i.v. administration): 0.11

CCCNC(=O)N=c1ccn(-c2ccccc2)nc1 [Example 85, 1,4-dihydro-1-phenyl-4-[(propylcarbamyl)-imino]-pyridazine]
ED50 [1]: 0.28 mg/kg | R.A. (relative activity), reserpine antagonism [1]: 2.62 | factor by which the quotient of antidepressive action and hypertensive action is smaller than in the case of amezinium ([2]; compounds of Table 1): 52 | Q (quotient ED 50% antidepressive action/ED 20% hypertensive action) ([2]; hypertensive test i.v.): 0.28 | ED20 (blood pressure; iv, i.v. administration): 1 mg/kg | R.A. (relative activity), hypertensive action (blood pressure; i.v. administration): 0.05

CNC(=S)N=c1ccn(-c2ccccc2)nc1 [Example 86, 1,4-dihydro-4-(methylthiocarbamyl)-imino-1-phenylpyridazine]
ED50 [1]: 2.1 mg/kg | R.A. (relative activity), reserpine antagonism [1]: 0.35 | Q (quotient ED 50% antidepressive action/ED 20% hypertensive action) ([2]; hypertensive test i.v.): < 2.1 | ED20 (blood pressure; iv, i.v. administration): > 1 mg/kg | R.A. (relative activity), hypertensive action (blood pressure; i.v. administration): < 0.05

CCNC(=S)N=c1ccn(-c2ccccc2)nc1 [Example 87, 1,4-dihydro-4-(ethylthiocarbamyl)-imino-1-phenylpyridazine]
ED50 [1]: 2.91 mg/kg | R.A. (relative activity), reserpine antagonism [1]: 0.25 | Q (quotient ED 50% antidepressive action/ED 20% hypertensive action) ([2]; hypertensive test i.v.): < 2.91 | ED20 (blood pressure; iv, i.v. administration): > 1 mg/kg | R.A. (relative activity), hypertensive action (blood pressure; i.v. administration): < 0.05

From US4820821A, “Novel pyridazinone-imines and their physiologically tolerated addition salts with acids, their preparation and therapeutic agents containing these compounds” (BASF Aktiengesellschaft, priority 1981, dated 1989)
